ChEMBL document CHEMBL1614632, “Trend analysis of a database of intravenous pharmacokinetic parameters in humans for 670 drug compounds” (Drug Metab Dispos, 2008)

How the values were obtained:
clinical [1] = details: human, in vivo, iv, t1/2
clinical [2] = details: human, in vivo, iv, Vdss
clinical [3] = details: human, in vivo, iv
clinical [4] = details: human, in vivo, iv, CL

Structure (SMILES)	half-life (clinical [1]) [min]	Vd (clinical [2]) [L/kg]	MRT (clinical [3]) [h]	clearance (clinical [4]) [mL/min/kg]
CCC(CC)COC(C(=O)OCCN(C)C)(c1ccccc1)c1ccccc1 [DENAVERINE]	2040	7.1	21	5.7
CN(C)CCc1c[nH]c2ccc(Cn3cncn3)cc12 [RIZATRIPTAN]	132	1.9	1.98	16
NC(=O)NO [HYDROXYUREA]	204	0.52	4.8	1.5
COc1ccccc1OCCNCC(O)COc1cccc2[nH]c3ccccc3c12 (stereo unspecified) [CARVEDILOL]	144	1.3	2.8	7.8
O=P1(NCCCl)OCCCN1CCCl (stereo unspecified) [IFOSFAMIDE]	396	0.62	9.4	1.1
CN(C)Cc1nnc2n1-c1ccc(Cl)cc1C(c1ccccc1)=NC2 [ADINAZOLAM]	126	0.98	2.6	6.2
S=P(N1CC1)(N1CC1)N1CC1 [THIOTEPA]	162	1.6	4	6.7
Cc1[nH]cnc1CN1CCc2c(c3ccccc3n2C)C1=O [ALOSETRON]	96	1.1	2.1	8.7
O=C1CN=C(c2ccccc2)c2cc([N+](=O)[O-])ccc2N1 [NITRAZEPAM]	1560	1.7	33	0.86
C/C(=C\c1csc(C)n1)[C@@H]1C[C@@H]2O[C@]2(C)CCC[C@H](C)[C@H](O)[C@@H](C)C(=O)C(C)(C)[C@@H](O)CC(=O)N1 [IXABEPILONE]	1020	11	18	10
CN1CC[C@]23c4c5ccc(O)c4O[C@H]2[C@@H](O[C@@H]2O[C@H](C(=O)O)[C@@H](O)[C@H](O)[C@H]2O)C=C[C@H]3[C@H]1C5 [MORPHINE GLUCURONIDE]	84	0.12	0.91	2.2
N[C@H](C(=O)O)[C@@H]1CC(Cl)=NO1 [ACIVICIN]	594	0.5	12	0.69
COCc1c(C(C)C)nc(C(C)C)c(/C=C/[C@@H](O)C[C@@H](O)CC(=O)O)c1-c1ccc(F)cc1 [CERIVASTATIN]	108	0.33	1.8	2.9
C[C@]12CCC(=O)C=C1CC[C@@H]1[C@@H]2[C@@H](O)C[C@@]2(C)[C@H]1CC[C@]2(O)C(=O)CO [HYDROCORTISONE]	96	0.38	1.9	5.7
CC(C)(C)NCC(O)COc1ccc(NC(=O)NC2CCCCC2)cc1 (stereo unspecified) [TALINOLOL]	660	3.3	11	4.9
CO[C@H]1C[C@@H]2CC[C@@H](C)[C@@](O)(O2)C(=O)C(=O)N2CCCC[C@H]2C(=O)O[C@H]([C@H](C)C[C@@H]2CC[C@@H](OC(=O)C(C)(CO)CO)[C@H](OC)C2)CC(=O)[C@H](C)/C=C(\C)[C@@H](O)[C@@H](OC)C(=O)[C@H](C)C[C@H](C)/C=C/C=C/C=C/1C [TEMSIROLIMUS]	1080	3	10	7.7
CCOc1ccccc1OCCN[C@H](C)Cc1ccc(OC)c(S(N)(=O)=O)c1 [TAMSULOSIN]	408	0.21	5.6	0.62
Clc1cccc(N2CCNCC2)c1 [CHLOROPHENYLPIPERAZINE]	282	2.5	7	6.1
O=C(CCCN1CCC(n2c(O)nc3ccccc32)CC1)c1ccc(F)cc1 [BENPERIDOL]	348	3.8	7.5	8.3
CC1(C)S[C@@H]2[C@H](NC(=O)[C@H](N)c3ccccc3)C(=O)N2[C@H]1C(=O)O [AMPICILLIN]	84	0.22	1.3	2.8

Structure (SMILES)	half-life (clinical [1]) [min]	Vd (clinical [2]) [L/kg]	MRT (clinical [3]) [h]	clearance (clinical [4]) [mL/min/kg]
Cn1c(=O)c2c(ncn2C)n(C)c1=O [CAFFEINE]	294	0.63	7.5	1.4
Nc1ccn(C[C@@H](CO)OCP(=O)(O)O)c(=O)n1.O.O [CIDOFOVIR]	156	0.49	3.3	2.5
CC(C)c1nc(N(C)S(C)(=O)=O)nc(-c2ccc(F)cc2)c1/C=C/[C@@H](O)C[C@@H](O)CC(=O)O [ROSUVASTATIN]	120	1.7	2.6	11
Nc1nc2c(c(=O)[nH]1)N(C=O)C(CNc1ccc(C(=O)N[C@@H](CCC(=O)O)C(=O)O)cc1)CN2 (stereo partly specified) [LEUCOVORIN]	78	0.25	0.8	5.8
CS(=O)(=O)OCCCCOS(C)(=O)=O [BUSULFAN]	204	0.55	3.8	2.4
COc1nc(C)nc(Cl)c1N=C1NCCN1 [MOXONIDINE]	132	1.8	2.7	11
Nc1ccc(S(=O)(=O)Nc2ncccn2)cc1 [SULFADIAZINE]	420	0.29	8.8	0.55
CC(=N)N1CC[C@H](SC2=C(C(=O)O)N3C(=O)[C@H]([C@@H](C)O)[C@H]3C2)C1	57.6	0.19	1.2	2.6
CN/C(=N/CCSCc1nc[nH]c1C)NC#N [CIMETIDINE]	132	1.2	2.5	8.1
CC[C@H]1OC(=O)[C@H](C)[C@@H](O[C@H]2C[C@@](C)(OC)[C@@H](O)[C@H](C)O2)[C@H](C)[C@@H](O[C@@H]2O[C@H](C)C[C@H](N(C)C)[C@H]2O)[C@](C)(OC)C[C@@H](C)C(=O)[C@H](C)[C@@H](O)[C@]1(C)O [CLARITHROMYCIN]	168	1.5	3.4	7.3
OCCN1C[C@H](O)[C@@H](O)[C@H](O)[C@H]1CO [MIGLITOL]	138	0.28	2.7	1.7
CCN(CC)CCCC(C)Nc1c2ccc(Cl)cc2nc2ccc(OC)cc12 (stereo unspecified) [QUINACRINE]	7200	45	150	5.1
Cc1cc(O)c2c(=O)c3c(O)cc(O)c4c5c(O)cc(O)c6c(=O)c7c(O)cc(C)c8c1c2c(c34)c(c78)c65 [HYPERICIN]	2520	0.25	32	0.13
CCC(=O)C1(c2cccc(O)c2)CCN(C)CC1 [KETOBEMIDONE]	138	0.48	0.87	9.2
COc1cc2nc(N(C)CCCNC(=O)C3CCCO3)nc(N)c2cc1OC (stereo unspecified) [ALFUZOSIN]	288	1.5	4.2	5.9
CC[N+](C)(C)c1cccc(O)c1.[Br-] [EDROPHONIUM BROMIDE]	108	1.1	1.9	9.6
O=C1CN=C(c2ccccc2Cl)c2cc([N+](=O)[O-])ccc2N1 [CLONAZEPAM]	2280	2.9	55	0.88
CN1C(=O)C(O)N=C(c2ccccc2Cl)c2cc(Cl)ccc21 (stereo unspecified) [LORMETAZEPAM]	294	1.6	6.7	4
COc1cccc2c1C(=O)c1c(O)c3c(c(O)c1C2=O)C[C@@](O)(C(=O)CO)C[C@@H]3O[C@H]1C[C@H](N)[C@H](O)[C@H](C)O1 [DOXORUBICIN]	1920	22	24	15
